This note sets out measurements from ChEMBL document CHEMBL5614426 (J Med Chem, 2024).

Data set [1] has as its target T1, Histone-lysine N-methyltransferase NSD2 (Homo sapiens, UniProt O96028).
T1 sequence (O96028 whole entry): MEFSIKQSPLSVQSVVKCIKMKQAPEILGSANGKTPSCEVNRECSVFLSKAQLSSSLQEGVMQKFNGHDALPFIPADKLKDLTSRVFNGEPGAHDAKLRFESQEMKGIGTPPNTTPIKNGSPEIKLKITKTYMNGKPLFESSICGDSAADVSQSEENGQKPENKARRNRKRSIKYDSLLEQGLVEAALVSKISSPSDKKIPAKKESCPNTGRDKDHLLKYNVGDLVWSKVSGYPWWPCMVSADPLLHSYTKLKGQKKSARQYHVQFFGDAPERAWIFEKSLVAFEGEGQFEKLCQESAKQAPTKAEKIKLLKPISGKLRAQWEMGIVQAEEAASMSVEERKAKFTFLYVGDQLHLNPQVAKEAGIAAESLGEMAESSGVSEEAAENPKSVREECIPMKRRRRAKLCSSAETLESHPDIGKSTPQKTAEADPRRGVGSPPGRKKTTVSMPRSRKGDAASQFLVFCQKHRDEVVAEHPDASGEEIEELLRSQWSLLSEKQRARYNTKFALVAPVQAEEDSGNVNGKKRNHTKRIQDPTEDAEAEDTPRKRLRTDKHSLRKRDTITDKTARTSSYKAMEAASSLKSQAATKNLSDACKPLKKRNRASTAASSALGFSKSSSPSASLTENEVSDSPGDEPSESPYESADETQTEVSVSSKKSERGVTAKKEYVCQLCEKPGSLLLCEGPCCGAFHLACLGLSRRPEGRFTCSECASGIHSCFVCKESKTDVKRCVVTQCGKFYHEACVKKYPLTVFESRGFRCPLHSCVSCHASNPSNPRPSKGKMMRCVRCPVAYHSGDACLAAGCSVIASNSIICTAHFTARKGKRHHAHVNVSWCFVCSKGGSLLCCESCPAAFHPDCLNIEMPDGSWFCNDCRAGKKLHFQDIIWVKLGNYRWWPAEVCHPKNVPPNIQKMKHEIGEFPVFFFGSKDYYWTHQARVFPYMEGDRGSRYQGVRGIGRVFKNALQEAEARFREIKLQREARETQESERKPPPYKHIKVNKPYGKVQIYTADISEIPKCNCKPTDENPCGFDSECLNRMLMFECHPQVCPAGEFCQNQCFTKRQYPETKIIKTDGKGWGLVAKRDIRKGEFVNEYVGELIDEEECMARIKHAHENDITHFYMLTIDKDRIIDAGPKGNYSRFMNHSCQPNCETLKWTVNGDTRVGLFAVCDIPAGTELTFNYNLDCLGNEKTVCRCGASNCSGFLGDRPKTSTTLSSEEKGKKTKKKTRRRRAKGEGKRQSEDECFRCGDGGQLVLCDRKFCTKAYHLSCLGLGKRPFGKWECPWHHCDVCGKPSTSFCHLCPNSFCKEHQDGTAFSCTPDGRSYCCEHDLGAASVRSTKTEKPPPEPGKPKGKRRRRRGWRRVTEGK
Kind of data set: Inhibition of NSD2-SET domain (unknown origin).

Data set [2] addresses Histone-lysine N-methyltransferase 2B (Homo sapiens, UniProt Q9UMN6). Nature of the data set: Inhibition of MLL4 (unknown origin).
Data set [3] deals with T2, Histone-lysine N-methyltransferase EHMT1 (Homo sapiens, UniProt Q9H9B1).
T2 sequence (Q9H9B1 whole entry): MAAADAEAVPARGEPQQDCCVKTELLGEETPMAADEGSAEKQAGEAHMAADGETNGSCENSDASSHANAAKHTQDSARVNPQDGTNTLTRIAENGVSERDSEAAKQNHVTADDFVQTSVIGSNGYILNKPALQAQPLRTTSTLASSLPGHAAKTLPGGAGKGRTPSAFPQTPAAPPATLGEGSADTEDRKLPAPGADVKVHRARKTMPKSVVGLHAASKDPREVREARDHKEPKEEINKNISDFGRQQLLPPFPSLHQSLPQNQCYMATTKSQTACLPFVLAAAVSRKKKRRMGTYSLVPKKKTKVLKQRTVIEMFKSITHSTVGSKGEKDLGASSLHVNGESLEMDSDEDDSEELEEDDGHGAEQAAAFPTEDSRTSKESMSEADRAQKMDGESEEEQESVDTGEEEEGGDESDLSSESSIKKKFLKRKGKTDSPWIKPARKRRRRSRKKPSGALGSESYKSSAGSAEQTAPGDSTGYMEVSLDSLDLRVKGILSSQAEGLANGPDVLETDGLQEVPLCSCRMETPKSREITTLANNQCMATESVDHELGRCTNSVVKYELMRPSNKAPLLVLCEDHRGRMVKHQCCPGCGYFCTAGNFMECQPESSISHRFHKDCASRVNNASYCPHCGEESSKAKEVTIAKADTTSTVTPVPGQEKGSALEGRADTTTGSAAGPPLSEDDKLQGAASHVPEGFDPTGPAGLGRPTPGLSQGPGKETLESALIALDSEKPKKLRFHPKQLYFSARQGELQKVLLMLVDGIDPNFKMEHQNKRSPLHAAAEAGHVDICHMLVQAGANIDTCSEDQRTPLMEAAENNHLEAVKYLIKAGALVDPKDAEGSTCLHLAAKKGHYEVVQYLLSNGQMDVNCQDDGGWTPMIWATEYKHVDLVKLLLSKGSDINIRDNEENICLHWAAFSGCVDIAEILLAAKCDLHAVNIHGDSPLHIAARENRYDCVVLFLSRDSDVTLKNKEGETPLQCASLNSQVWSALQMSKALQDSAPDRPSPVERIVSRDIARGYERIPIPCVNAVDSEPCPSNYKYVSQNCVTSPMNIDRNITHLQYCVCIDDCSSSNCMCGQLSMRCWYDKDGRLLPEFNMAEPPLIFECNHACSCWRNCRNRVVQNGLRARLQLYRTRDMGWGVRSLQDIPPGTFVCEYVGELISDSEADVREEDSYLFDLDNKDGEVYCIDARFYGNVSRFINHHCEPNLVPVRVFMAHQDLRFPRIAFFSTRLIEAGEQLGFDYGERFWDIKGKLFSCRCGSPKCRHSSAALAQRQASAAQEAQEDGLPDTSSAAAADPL
Nature of the data set: Inhibition of GLP (unknown origin).

Data set [4] in a line: AUC (0 to last) in mouse at 50 mg/kg, po measured upto 24 hrs by LC-MS/MS analysis. It is filed as ADME, organism-based. The note with it: in vivo.
Data set [5] can be described thus: Toxicity in female NU/NU mouse xenografted with human RS4-11 cells assessed as change in body weight at 50 mg/kg, po administered for 21 days. It is filed as organism-based. The note with it: in vivo, 504 h, time 21 day. (Xenograft models place foreign cells or tissue in a host animal.)
The target in data set [6] is Protein arginine N-methyltransferase 8 (Homo sapiens, UniProt Q9NR22). Kind of data set: Inhibition of PRMT8 (unknown origin).
Sequence of Protein arginine N-methyltransferase 8 (Q9NR22 whole entry): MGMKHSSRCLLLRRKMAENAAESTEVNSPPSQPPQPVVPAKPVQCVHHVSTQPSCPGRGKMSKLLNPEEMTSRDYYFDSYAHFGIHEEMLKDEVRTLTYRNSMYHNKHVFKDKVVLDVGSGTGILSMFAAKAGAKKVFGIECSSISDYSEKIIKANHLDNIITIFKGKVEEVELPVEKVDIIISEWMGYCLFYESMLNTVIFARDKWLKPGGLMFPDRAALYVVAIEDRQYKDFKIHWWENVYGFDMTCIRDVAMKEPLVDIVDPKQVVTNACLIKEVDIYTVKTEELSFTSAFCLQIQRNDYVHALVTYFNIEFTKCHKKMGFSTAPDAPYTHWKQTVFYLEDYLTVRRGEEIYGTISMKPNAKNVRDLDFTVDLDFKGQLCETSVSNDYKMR
A short description of data set [7]: Cmax in mouse at 50 mg/kg, po measured upto 24 hrs by LC-MS/MS analysis. The data set is classed as ADME, organism-based. The note with it: in vivo.
Data set [8] can be described thus: Half life in mouse at 1 mg/kg, iv measured upto 24 hrs by LC-MS/MS analysis. It is filed as ADME, organism-based. The note with it: in vivo.
Data set [9] can be described thus: MRT (0 to t) in mouse at 50 mg/kg, po measured upto 24 hrs by LC-MS/MS analysis. It is filed as ADME, organism-based. The note with it: in vivo.
For data set [10], the target named is Histone-lysine N-methyltransferase EZH2 (Homo sapiens, UniProt Q15910). Nature of the data set: Inhibition of EZH2 (unknown origin).
Sequence of Histone-lysine N-methyltransferase EZH2 (Q15910 whole entry): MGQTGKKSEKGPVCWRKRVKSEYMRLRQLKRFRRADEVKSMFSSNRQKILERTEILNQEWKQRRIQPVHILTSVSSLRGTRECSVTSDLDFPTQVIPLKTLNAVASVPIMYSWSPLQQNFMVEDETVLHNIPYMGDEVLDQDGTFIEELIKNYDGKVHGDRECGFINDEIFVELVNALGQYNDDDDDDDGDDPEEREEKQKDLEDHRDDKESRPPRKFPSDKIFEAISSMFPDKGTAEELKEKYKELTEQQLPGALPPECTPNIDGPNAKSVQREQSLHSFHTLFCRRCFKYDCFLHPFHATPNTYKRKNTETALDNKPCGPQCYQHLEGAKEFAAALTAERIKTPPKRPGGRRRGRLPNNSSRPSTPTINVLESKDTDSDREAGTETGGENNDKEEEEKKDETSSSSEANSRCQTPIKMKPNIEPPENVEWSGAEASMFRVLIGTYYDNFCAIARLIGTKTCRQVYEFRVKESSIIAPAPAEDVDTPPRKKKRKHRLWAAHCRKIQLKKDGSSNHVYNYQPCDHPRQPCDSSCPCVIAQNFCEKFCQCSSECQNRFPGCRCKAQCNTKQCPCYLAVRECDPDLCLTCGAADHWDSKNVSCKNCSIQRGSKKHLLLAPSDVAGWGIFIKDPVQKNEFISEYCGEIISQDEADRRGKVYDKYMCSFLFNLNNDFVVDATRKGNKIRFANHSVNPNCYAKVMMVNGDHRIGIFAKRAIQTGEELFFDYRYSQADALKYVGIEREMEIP
Data set [11] in a line: AUC (0 to infinity) in mouse at 1 mg/kg, iv measured upto 24 hrs by LC-MS/MS analysis. It is filed as ADME, organism-based. The note with it: in vivo.
Data set [12] is described as follows: AUC (0 to infinity) in mouse at 50 mg/kg, po measured upto 24 hrs by LC-MS/MS analysis. It is filed as ADME, organism-based. The note with it: in vivo.
Data set [13] can be described thus: Volume of distribution at steady state in mouse at 1 mg/kg, iv measured upto 24 hrs by LC-MS/MS analysis. The data set is classed as ADME, organism-based. The note with it: in vivo, read-out: Vdss.
In data set [14] the target is Histone-lysine N-methyltransferase 2A (Homo sapiens, UniProt Q03164). Kind of data set: Inhibition of MLL1 (unknown origin).
Data set [15] concerns the target DNA (cytosine-5)-methyltransferase 1 (Homo sapiens, UniProt P26358). Nature of the data set: Inhibition of DNMT1 (unknown origin).
Data set [16] can be described thus: Half life in mouse at 50 mg/kg, po measured upto 24 hrs by LC-MS/MS analysis. The data set is classed as ADME, organism-based. The note with it: in vivo.
Data set [17] in a line: Oral bioavailability in mouse at 50 mg/kg measured upto 24 hrs by LC-MS/MS analysis. It is filed as ADME, organism-based. The note with it: in vivo.
For data set [18], the target named is T3, Histone-arginine methyltransferase CARM1 (Homo sapiens, UniProt Q86X55).
T3 sequence (Q86X55 whole entry): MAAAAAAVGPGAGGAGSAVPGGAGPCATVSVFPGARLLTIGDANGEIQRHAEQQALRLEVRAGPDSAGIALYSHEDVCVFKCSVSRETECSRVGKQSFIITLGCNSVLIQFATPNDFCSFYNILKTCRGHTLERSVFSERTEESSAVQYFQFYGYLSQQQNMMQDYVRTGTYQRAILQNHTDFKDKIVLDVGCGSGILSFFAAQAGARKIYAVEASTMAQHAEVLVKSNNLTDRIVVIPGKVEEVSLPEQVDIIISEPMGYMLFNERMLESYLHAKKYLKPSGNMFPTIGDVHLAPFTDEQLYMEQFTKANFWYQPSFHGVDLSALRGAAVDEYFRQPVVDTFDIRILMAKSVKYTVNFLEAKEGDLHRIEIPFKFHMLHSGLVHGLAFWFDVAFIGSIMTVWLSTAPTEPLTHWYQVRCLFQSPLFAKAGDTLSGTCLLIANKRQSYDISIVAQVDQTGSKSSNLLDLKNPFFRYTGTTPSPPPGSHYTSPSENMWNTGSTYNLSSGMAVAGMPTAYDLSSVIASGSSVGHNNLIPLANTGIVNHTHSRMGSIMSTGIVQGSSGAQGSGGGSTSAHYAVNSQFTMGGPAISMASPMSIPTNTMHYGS
Nature of the data set: Inhibition of PRMT4 (unknown origin).

Data set [19] can be described thus: AUC (0 to last) in mouse at 1 mg/kg, iv measured upto 24 hrs by LC-MS/MS analysis. The note with it: in vivo. The data set is classed as ADME, organism-based.
Data set [20] is described as follows: Cmax in mouse at 1 mg/kg, iv measured upto 24 hrs by LC-MS/MS analysis. The data set is classed as ADME, organism-based. The note with it: in vivo.
In data set [21] the target is Protein arginine N-methyltransferase 5 (Homo sapiens, UniProt O14744). Nature of the data set: Inhibition of PRMT5 (unknown origin).
Sequence of Protein arginine N-methyltransferase 5 (O14744 whole entry): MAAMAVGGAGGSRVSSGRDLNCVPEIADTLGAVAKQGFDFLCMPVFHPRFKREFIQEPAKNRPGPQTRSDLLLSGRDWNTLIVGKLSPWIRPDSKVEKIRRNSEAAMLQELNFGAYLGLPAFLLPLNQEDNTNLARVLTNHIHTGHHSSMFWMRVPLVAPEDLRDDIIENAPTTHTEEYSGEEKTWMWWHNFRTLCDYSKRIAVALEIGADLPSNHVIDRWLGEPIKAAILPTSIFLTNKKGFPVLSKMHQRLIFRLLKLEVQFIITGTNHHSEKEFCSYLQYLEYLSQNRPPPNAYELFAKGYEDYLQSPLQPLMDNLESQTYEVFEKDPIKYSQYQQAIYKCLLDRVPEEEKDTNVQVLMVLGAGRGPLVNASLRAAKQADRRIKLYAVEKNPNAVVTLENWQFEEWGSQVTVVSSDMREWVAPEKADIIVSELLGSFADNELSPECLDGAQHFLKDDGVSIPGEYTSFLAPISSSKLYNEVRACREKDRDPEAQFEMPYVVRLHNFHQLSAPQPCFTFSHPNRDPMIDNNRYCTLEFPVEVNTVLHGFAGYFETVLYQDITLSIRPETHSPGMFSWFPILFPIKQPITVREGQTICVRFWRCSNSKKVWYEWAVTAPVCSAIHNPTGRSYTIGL
Data set [22] is described as follows: MRT (0 to t) in mouse at 1 mg/kg, iv measured upto 24 hrs by LC-MS/MS analysis. The data set is classed as ADME, organism-based. The note with it: in vivo.

pIC50: −log10 of the molar value.

Sequence of Histone-lysine N-methyltransferase 2B (Q9UMN6 whole entry): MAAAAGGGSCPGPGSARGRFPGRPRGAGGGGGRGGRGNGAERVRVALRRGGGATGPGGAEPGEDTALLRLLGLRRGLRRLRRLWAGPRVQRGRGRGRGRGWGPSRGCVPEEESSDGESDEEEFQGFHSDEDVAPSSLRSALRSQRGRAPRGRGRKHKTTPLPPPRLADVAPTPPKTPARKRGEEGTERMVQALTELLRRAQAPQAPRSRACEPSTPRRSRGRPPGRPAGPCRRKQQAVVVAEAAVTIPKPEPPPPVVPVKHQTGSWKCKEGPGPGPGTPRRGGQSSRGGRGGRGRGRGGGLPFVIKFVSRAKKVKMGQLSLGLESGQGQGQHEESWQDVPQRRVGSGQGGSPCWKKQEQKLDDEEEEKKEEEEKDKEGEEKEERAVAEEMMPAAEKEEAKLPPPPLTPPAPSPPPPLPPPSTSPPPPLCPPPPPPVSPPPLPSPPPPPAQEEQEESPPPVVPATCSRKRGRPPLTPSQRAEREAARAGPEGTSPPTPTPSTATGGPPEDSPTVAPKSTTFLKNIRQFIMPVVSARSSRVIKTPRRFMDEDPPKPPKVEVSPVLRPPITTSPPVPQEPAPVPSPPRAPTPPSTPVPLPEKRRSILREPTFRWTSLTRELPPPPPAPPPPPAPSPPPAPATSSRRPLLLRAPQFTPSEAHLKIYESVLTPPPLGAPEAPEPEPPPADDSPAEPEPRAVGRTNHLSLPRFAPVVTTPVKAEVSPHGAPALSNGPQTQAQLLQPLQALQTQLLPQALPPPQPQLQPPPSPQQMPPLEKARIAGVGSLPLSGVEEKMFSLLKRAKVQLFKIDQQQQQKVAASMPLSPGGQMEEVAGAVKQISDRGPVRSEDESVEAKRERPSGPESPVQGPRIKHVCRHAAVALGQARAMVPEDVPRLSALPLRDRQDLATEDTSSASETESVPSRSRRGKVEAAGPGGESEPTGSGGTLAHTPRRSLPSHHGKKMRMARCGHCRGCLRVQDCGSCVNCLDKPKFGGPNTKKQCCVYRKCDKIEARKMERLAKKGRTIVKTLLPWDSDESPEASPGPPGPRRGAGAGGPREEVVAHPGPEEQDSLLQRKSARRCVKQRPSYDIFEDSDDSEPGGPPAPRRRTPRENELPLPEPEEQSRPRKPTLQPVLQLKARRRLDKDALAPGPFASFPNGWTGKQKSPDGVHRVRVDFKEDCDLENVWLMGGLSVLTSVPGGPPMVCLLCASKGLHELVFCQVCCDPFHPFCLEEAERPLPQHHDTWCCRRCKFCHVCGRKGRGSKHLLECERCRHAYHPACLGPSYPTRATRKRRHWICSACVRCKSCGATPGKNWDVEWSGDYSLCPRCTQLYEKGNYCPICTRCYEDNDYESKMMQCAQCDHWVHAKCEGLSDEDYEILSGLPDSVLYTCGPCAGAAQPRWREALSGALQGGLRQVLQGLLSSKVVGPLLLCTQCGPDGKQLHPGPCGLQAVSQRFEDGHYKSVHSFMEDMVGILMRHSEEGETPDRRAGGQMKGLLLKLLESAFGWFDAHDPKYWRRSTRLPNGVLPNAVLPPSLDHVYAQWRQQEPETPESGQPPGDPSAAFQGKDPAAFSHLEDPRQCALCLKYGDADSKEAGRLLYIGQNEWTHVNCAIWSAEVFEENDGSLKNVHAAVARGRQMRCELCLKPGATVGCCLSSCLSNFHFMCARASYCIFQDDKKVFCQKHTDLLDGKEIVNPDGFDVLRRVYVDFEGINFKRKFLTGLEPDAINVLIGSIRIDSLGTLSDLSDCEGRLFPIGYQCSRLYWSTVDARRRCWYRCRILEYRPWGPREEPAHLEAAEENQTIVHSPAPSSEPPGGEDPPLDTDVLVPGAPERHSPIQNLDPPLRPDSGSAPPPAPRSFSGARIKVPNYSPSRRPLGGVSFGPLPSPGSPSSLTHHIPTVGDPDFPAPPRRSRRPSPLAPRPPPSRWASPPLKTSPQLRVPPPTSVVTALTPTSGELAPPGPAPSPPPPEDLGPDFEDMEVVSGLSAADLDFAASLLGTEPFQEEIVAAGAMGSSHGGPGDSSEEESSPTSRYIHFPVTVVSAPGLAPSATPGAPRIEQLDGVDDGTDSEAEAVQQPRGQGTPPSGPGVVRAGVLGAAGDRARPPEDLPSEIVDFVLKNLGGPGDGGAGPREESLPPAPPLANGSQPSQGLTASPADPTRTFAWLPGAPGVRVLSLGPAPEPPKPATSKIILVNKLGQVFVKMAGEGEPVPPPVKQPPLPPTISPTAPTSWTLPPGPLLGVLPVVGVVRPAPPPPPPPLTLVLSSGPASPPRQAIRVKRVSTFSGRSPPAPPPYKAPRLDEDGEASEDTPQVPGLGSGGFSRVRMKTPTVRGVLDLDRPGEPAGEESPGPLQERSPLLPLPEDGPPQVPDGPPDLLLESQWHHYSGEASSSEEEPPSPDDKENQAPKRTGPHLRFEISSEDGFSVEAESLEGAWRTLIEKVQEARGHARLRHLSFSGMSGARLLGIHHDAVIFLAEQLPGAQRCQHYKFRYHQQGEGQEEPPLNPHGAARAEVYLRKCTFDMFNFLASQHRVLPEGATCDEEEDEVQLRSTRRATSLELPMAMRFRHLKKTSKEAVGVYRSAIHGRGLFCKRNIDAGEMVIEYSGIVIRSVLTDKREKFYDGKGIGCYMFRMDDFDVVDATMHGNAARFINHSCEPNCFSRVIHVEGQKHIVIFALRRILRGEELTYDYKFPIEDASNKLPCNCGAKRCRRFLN

In data set [1], `COc1cc(F)c(-c2cc(Cn3cnc4c(N)ncnc43)c(N3CCC[C@](N)([C@H](O)C(F)F)C3)cn2)cc1F` showed a negative logarithm of the IC50 (pIC50) greater than 7.00.
As to `COc1cc2c(NC3CCN(C(C)C)CC3)nc(C#N)nc2cc1OCCCN1CCOCC1`, the pIC50 in data set [2], in [3], in data set [6], in data set [10], in [14] and in data set [15] was less than 5.00 throughout. Moreover, the negative logarithm of the IC50 (pIC50) in data set [18] is 5.05; in data set [21], less than 5.00. Further, the AUClast in data set [4] is 1694.02 ng·h/mL; in data set [19] it was 123.9 ng·h/mL. Further, in data set [5], the Activity entry is reported as “Non-Toxic”. The peak concentration (Cmax) stood at 1160 nM in data set [7] and 280 nM in data set [20]. Besides, in [8], the t1/2 was determined as 8 h. Besides, the figures for the MRT last at 24 h in data set [9] and in data set [22] were 5.3 h and 6.12 h, respectively. The AUC amounted to 134 ng·h/mL in [11] and 1760 ng·h/mL in data set [12]. The Vd in data set [13] was 46 L/kg. In data set [16], this compound had a half-life of 6.35 h. Also, the bioavailability in data set [17] was found to be 27.3%.

Usually pIC50 stands for the negative decadic logarithm of the IC50, by convention in mol/L. A low value points to a large IC50. What is called Cmax is the maximum level reached in the sampled fluid or tissue. One may read the MRT last as the average time that molecules of a dose stay in the body. The AUC is concentration integrated over time. A low value points to less exposure. In general, half-life refers to how long it takes for the measured level to halve. A higher half-life goes with slow loss. As usually defined, the bioavailability is the share of a dose that reaches the circulation, judged against a reference dose that is usually intravenous. A high value points to much systemic uptake.
